Here are results for one molecule from patent publication US20240018146A1, “COMPOSITIONS AND METHODS OF USING THE SAME FOR TREATMENT OF NEURODEGENERATIVE AND MITOCHONDRIAL DISEASE” (MITOKININ, INC., priority 2020, published 2024).

Entries after “also recorded” stand apart in the source; their conditions may differ.

Data set [1] can be described thus: Mitotoxicity / Mitotox safety margin (therapeutic window). The data set is classed as cell-based.
Data set [2] has as its system pS129 α-syn. As to the kind of experiment: Preformed fibril (PFF) model in primary neuron culture, pS129 α-syn. In kind it is cell-based. As to conditions: increasing doses. On the procedure:
4. Preformed Fibril Model
(§1) Mouse and human alpha-synuclein monomers have been sourced commercially, then pre-formed fibrils have been generated as per the detailed protocol provided by the MJFF. For in vitro experiments primary hippocampal neurons isolated from P0 pups were grown for 7 days after which PFFs at 5 ug/ml were introduced Pre-formed fibrils will be introduced via stereotactic injection into the striatum of wt (C57BL/6J, Jax #000664) and transgenic A53T mice (B6;C3-Tg(Prnp-SNCA*A53T)83Vle/J, Jax #004479). Cohorts of drug-treated (oral gavage) and untreated animals will then be allowed to age for up to 6 months, at which point they will be sacrificed and perfused. Brains will be removed and fixed, then sectioned for analysis. We anticipate that untreated A53T animals will show significant spreading of aggregated alpha-synuclein pathology and pS129 staining, as well as some possible neurodegeneration; wt animals are also expected to show pS129 synuclein staining and synuclein aggregation, albeit less than that seen in the A53T background.

Data set [3] concerns KIM-1. As to the kind of experiment: Cisplatin challenge, kidney injury marker (KIM-1) in urine. In kind it is in vivo, mice (C57Bl/6). As to conditions: 10 mg/kg cisplatin i.p., oral gavage QD, day 3 post-challenge. The procedure: (§2) Mice were provided at least one week of acclimation to the animal facility and group housed. Mice were injected intraperitoneally with 1 mg/ml cisplatin solution (BluePoint Labs) or 10 ml/kg sterile-filtered saline using 29G insulin syringes. Mice were weighed and administered vehicle, 35985 or 40180 by oral gavage per the dosing regimens noted in the figures. Mice were monitored for excessive weight loss and euthanized if moribund.
(§3) 35985 and 40180 are formulated at ten-fold the dosing concentration in NMP (N-methylpyrrolidone) followed by dilution with solutol-15 and water for a final vehicle concentration of 10% NMP/10% solutol-15/80% water.
Urine was collected from scruffed mice (serial collection) or directly from bladder using insulin syringe during harvest (terminal collection). KIM-1 was measured in mouse urine using R&D System's Mouse TIM-1/KIM-1/HAVCR DuoSet ELISA following manufacturer's published protocol.
Referring to FIG. 36, mice (C57Bl/6) were challenged with a single intraperitoneal dose of 10 mg/kg cisplatin or saline and dosed by oral gavage once per day (QD) with 40180.

Data set [4] deals with HeLa MKYP cells. As to the kind of experiment: Human mitophagy assay (HeLa mKeima assay, FACS). The data set is classed as cell-based. In short, it runs like this: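 Mitophagy, read by FACS as the share of cells showing the lysosomal mtKeima emission shift, followed 6 h of 1 uM FCCP/oligomycin stimulation. Before that, HeLa MKYP cells spent 16 h with compound over a concentration range.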

Data set [5] has as its system cleaved caspase-3. As to the kind of experiment: Cleaved caspase-3 levels in primary neuron culture. In kind it is cell-based. As to conditions: compared with toxins.
Data set [6] deals with pathologic (pS129) α-syn. As to the kind of experiment: In vivo α-syn (PFF) model, pathologic pS129 α-syn in striatum. Also noted: species or system mice. To be noted: oral BID dosing at 50, 25, 12.5, and 6.25 mg/kg. The procedure: FIG. 9A and FIG. 9B show representative in vivo data of EP-0040180 in an α-syn (PFF) model.
as §1

Data set [7] has as its system Parkin. As to the kind of experiment: Parkin recruitment to mitochondria (HeLa cells expressing YFP-tagged Parkin, longitudinal imaging). In kind it is cell-based, human. To be noted: FCCP and Oligomycin, cells with Parkin recruited at 60 minutes, FIG. 29. On the procedure: HeLa cells expressing a YFP-tagged Parkin were treated with […] of FCCP and Oligomycin followed by the specified dose of compound, then analyzed by longitudinal imaging. Percentage of cells with Parkin recruited to mitochondria at 60 minutes is shown.

The subject of data set [8] is HeLa MKYP cells. As to the kind of experiment: Cell death measured by DAPI staining, with 1 μM FCCP/oligomycin or no toxin (no FO). In kind it is cell-based. A digest of the protocol:
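Cell death was read by DAPI staining after 6–6.5 h compound exposure in HeLa MKYP cells, either with 1 μM FCCP/oligomycin or without toxin. H2O2 served as the cell-death control.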

Data set [9] deals with Gdf15, Tnfrsf12a. As to the kind of experiment: Cisplatin challenge, kidney expression of mitochondrial-stress related genes (quantitative PCR). The data set is classed as in vivo, mice (C57Bl/6). As to conditions: 10 mg/kg cisplatin i.p., oral gavage QD for three days. The procedure: as §2, §3
RNA was isolated from kidney samples using Rneasy Mini kit (Qiagen) according to its product manual. RNA concentration was measured using NanoDrop™ 2000/2000c Spectrophotometers (Thermo Scientific). 50 ng of RNA for each sample was used to generate cDNA. cDNA was synthesized using High-Capacity RNA-to-cDNA™ Kit (Thermo Scientific) according to its product manual. Quantitative PCR was performed using Power SYBR™ Green PCR Master Mix (Applied Biosystems) according to its product manual. The following primers were used to analyze gene expression levels in the kidney: […]
All gene expression levels were normalized to expression levels of beta-actin using ΔΔCt and expressed as fold change relative to cisplatin vehicle treated mice. […]

As for `c1ccc2c(c1)OC[C@H](N1CCOCC1)[C@H]2Nc1ncnc2[nH]c(C3CC3)cc12` (single isomer, unassigned) [EP-0040180], in [1] (highest safe dose/EC50), the “Mito-Safety Index (highest safe dose/EC50)” value came to 97.54. Also, in data set [1] (mitotox or cytotox), the “Highest safe dose (μM) (mitotox or cytotox)” value turned out to be 25.0 µM. Further, in data set [2], the “pS129 α-syn (250-12) in primary neuron culture” value is reported as “reduces”, the “pS129 α-syn (monomer) in primary neuron culture” value is recorded as “reduces” and the “pS129 α-syn in primary neuron culture” value was “reduces”. Further, the “KIM-1 (kidney-injury marker 1), urine” value in data set [3] was “dose-dependent rescue of KIM-1; also recorded: reduces KIM-1”. Further, in [4] (HeLa cells expressing mtKeima, FCCP and Oligomycin, FACS, FIG. 28), the “percentage of cells undergoing mitophagy” value is listed as “induce mitophagy in a dose dependent manner; also recorded: dose responsive increase in the percentage of cells undergoing mitophagy”. Moreover, in data set [4] (Homo sapiens, HeLa, read-out: Mitophagy induction EC50), the EC50 – broadly, the concentration that produces a half-maximal response – was 260 nM. In addition, the “cleaved caspase-3 levels” value in data set [5] is on record as “do not significantly alter”. Further, in data set [6], the “pathologic (pS129) α-syn (250-12) from the striatum induced by PFF challenge” value is “significantly reduces” and the “pathologic (pS129) α-syn (monomer) from the striatum induced by PFF challenge” value was “significantly reduces”. The “Parkin recruitment to mitochondria” value in data set [7] is on record as “accelerate recruitment of Parkin to mitochondria; also recorded: dose responsive increase in the rate of Parkin recruitment to mitochondria”. For the same molecule, in data set [8] (no FO, safe means DAPI+ <20%), the “Highest safe dose (cytotoxicity; no FO; safe means DAPI+ <20%)” value amounted to 25.0 µM. Also, in data set [8] (with 1 μM FO), the “Max % death with 1 μM FO” value is on record as 10.4%. For the same molecule, in data set [9], the “expression of mitochondrial-stress related genes Gdf15 and Tnfrsf12a in kidney” value was “reduced expression of these genes in a dose-responsive manner; also recorded: reduces expression of mitochondrial-stress related genes”.
